19 compounds from patent US20240368177A1, “5-AMINO-6,8-DIHYDRO-1H-FURO[3,4-d]PYRROLO[3,2-b]PYRIDINE-2-CARBOXAMIDE DERIVATIVES AS MTA-COOPERATIVE INHIBITORS OF PRMT5” (BeiGene Switzerland GmbH, priority 2023, published 2024) can be followed below.

The structures appear in SMILES notation.

One assay has as its system HCT116-MTAP-KO. Nature of the assay: Cell killing in HCT116 isogenic pair (Cell Titer-Glo viability), MTAP knock-out cells. It is filed as cell-based, human. The conditions noted are these: Homo sapiens, HCT-116, 144 h, 6 days incubation, 0-10 μM, * = more than 50% viability inhibition at tested concentration without a full curve. In short, it runs like this: (§1)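 HCT116 MTAP-knockout or mock-knockout (MTAP wildtype) cells in RPMI 1640 with 10% FBS were seeded overnight, then exposed to test compound at 0–10 μM final for 6 days at 37° C. Viability was measured by CellTiter-Glo luminescence and IC50 was fitted.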
For orientation: In ATP-based viability assays light output follows the ATP content of the culture.

In another assay the test system is HCT116-mock-RNA-KO. The assay can be described thus: Cell killing in HCT116 isogenic pair (Cell Titer-Glo viability), mock knock-out cells with MTAP wildtype genotype. The conditions noted are these: Homo sapiens, HCT-116, 144 h, 6 days incubation, 0-10 μM. It is filed as cell-based, human. In short, it runs like this:
as §1

Usually IC50 stands for the point on the concentration scale where inhibition reaches its midpoint. Low values mean greater potency in that assay, high ones weaker potency in that assay.

With `Nc1nc2cc(C(=O)N(Cc3ncc(C4CC4)cc3F)C3CCCC3)[nH]c2c2c1COC2` [Example 65, 5-amino-N-cyclopentyl-N-((5-cyclopropyl-3-fluoropyridin-2-yl)methyl)-6,8-dihydro-1H-furo[3,4-d]pyrrolo[3,2-b]pyridine-2-carboxamide], the IC50 was determined as 17 nM in the assay on HCT116-MTAP-KO and 2460 nM in the assay with HCT116-mock-RNA-KO.
For the compound `CC(C)N(Cc1ncc(C2CC2)cc1F)C(=O)c1cc2nc(N)c3c(c2[nH]1)COC3` [Example 66, 5-amino-N-((5-cyclopropyl-3-fluoropyridin-2-yl)methyl)-N-isopropyl-6,8-dihydro-1H-furo[3,4-d]pyrrolo[3,2-b]pyridine-2-carboxamide], the 50% inhibitory concentration (IC50) in the assay with HCT116-MTAP-KO was 20 nM; in the assay with HCT116-mock-RNA-KO, 2520 nM.
Consider `CC[C@@H](C)N(Cc1ncc(C2CC2)cc1F)C(=O)c1cc2nc(N)c3c(c2[nH]1)COC3` [Example 67, (R)-5-amino-N-(sec-butyl)-N-((5-cyclopropyl-3-fluoropyridin-2-yl)methyl)-6,8-dihydro-1H-furo[3,4-d]pyrrolo[3,2-b]pyridine-2-carboxamide], for which the IC50 in the assay on HCT116-MTAP-KO came out at 4.2 nM; in the assay on HCT116-mock-RNA-KO, 453 nM.
With `C[C@H]1OCc2c1c(N)nc1cc(C(=O)N(C)[C@@H]3COCc4cc(C(F)(F)F)ccc43)[nH]c21` [Example 68, (R)-5-amino-N,6-dimethyl-N—((S)-7-(trifluoromethyl)isochroman-4-yl)-6,8-dihydro-1H-furo[3,4-d]pyrrolo[3,2-b]pyridine-2-carboxamide], the IC50 in the assay with HCT116-MTAP-KO was found to be 9 nM; with HCT116-mock-RNA-KO, 1690 nM.
Consider `Nc1nc2cc(C(=O)N(Cc3ncc(C4CC4)cc3F)C3CCC3)[nH]c2c2c1COC2` [Example 69, 5-amino-N-cyclobutyl-N-((5-cyclopropyl-3-fluoropyridin-2-yl)methyl)-6,8-dihydro-1H-furo[3,4-d]pyrrolo[3,2-b]pyridine-2-carboxamide], for which the IC50 came out at 26 nM with HCT116-MTAP-KO and 2700 nM with HCT116-mock-RNA-KO.
For the compound `CC(C)[C@@H](C)N(Cc1ncc(C2CC2)cc1F)C(=O)c1cc2nc(N)c3c(c2[nH]1)COC3` [Example 70, (R)-5-amino-N-((5-cyclopropyl-3-fluoropyridin-2-yl)methyl)-N-(3-methylbutan-2-yl)-6,8-dihydro-1H-furo[3,4-d]pyrrolo[3,2-b]pyridine-2-carboxamide], the results for the IC50 in the assay with HCT116-MTAP-KO and in the assay on HCT116-mock-RNA-KO were 12 nM and 1180 nM, respectively.
As for `C[C@H]1OCc2c1c(N)nc1cc(C(=O)N(C)[C@H]3COCc4cc(Br)ccc43)[nH]c21` [Example 71, (R)-5-amino-N—((R)-7-bromoisochroman-4-yl)-N,6-dimethyl-6,8-dihydro-1H-furo[3,4-d]pyrrolo[3,2-b]pyridine-2-carboxamide], the figures for the IC50 with HCT116-MTAP-KO and in the assay on HCT116-mock-RNA-KO were 728 nM and 6160 nM, respectively.
For the compound `C[C@H]1OCc2c1c(N)nc1cc(C(=O)N(C)[C@@H]3COCc4cc(Br)ccc43)[nH]c21` [Example 72, (R)-5-amino-N—((S)-7-bromoisochroman-4-yl)-N,6-dimethyl-6,8-dihydro-1H-furo[3,4-d]pyrrolo[3,2-b]pyridine-2-carboxamide], the IC50 amounted to 8.2 nM in the assay with HCT116-MTAP-KO and 1010 nM in the assay with HCT116-mock-RNA-KO.
The like results for `CCN(C(=O)c1cc2nc(N)c3c(c2[nH]1)COC3)[C@@H]1COCc2cc(Cl)ccc21` [Example 73, (S)-5-amino-N-(7-chloroisochroman-4-yl)-N-ethyl-6,8-dihydro-1H-furo[3,4-d]pyrrolo[3,2-b]pyridine-2-carboxamide] were, in that order, 34 nM and 2490 nM.
The like results for `CCN(C(=O)c1cc2nc(N)c3c(c2[nH]1)COC3)[C@H]1COCc2cc(Cl)ccc21` [Example 74, (R)-5-amino-N-(7-chloroisochroman-4-yl)-N-ethyl-6,8-dihydro-1H-furo[3,4-d]pyrrolo[3,2-b]pyridine-2-carboxamide] were, in that order, 1070 nM and > 10000 nM.
Regarding `CCN(C(=O)c1cc2nc(N)c3c(c2[nH]1)COC3)[C@@H]1COCc2cc(F)cc(F)c21` [Example 75, (S)-5-amino-N-(5,7-difluoroisochroman-4-yl)-N-ethyl-6,8-dihydro-1H-furo[3,4-d]pyrrolo[3,2-b]pyridine-2-carboxamide], the IC50 with HCT116-MTAP-KO is 41 nM; in the assay on HCT116-mock-RNA-KO, > 10000 nM.
In the case of `CCN(C(=O)c1cc2nc(N)c3c(c2[nH]1)COC3)[C@H]1COCc2cc(F)cc(F)c21` [Example 76, (R)-5-amino-N-(5,7-difluoroisochroman-4-yl)-N-ethyl-6,8-dihydro-1H-furo[3,4-d]pyrrolo[3,2-b]pyridine-2-carboxamide], the IC50 is 2110 nM in the assay with HCT116-MTAP-KO and > 10000 nM in the assay with HCT116-mock-RNA-KO.
In the case of `CCN(C(=O)c1cc2nc(N)c3c(c2[nH]1)COC3)[C@@H]1COc2cc(C(F)(F)F)ccc21` [Example 77, (S)-5-amino-N-ethyl-N-(6-(trifluoromethyl)-2,3-dihydrobenzofuran-3-yl)-6,8-dihydro-1H-furo[3,4-d]pyrrolo[3,2-b]pyridine-2-carboxamide], the IC50 was 51 nM in the assay with HCT116-MTAP-KO and > 10000 nM with HCT116-mock-RNA-KO.
Turning to `C[C@@H]1OC[C@H](N(C)C(=O)c2cc3nc(N)c4c(c3[nH]2)COC4)c2ccc(Br)cc21` [Example 78, 5-amino-N-((1S,4R)-7-bromo-1-methylisochroman-4-yl)-N-methyl-6,8-dihydro-1H-furo[3,4-d]pyrrolo[3,2-b]pyridine-2-carboxamide], the 50% inhibitory concentration (IC50) was 624 nM in the assay with HCT116-MTAP-KO and 2930 nM with HCT116-mock-RNA-KO.
With `C[C@H]1OC[C@H](N(C)C(=O)c2cc3nc(N)c4c(c3[nH]2)COC4)c2ccc(Br)cc21` [Example 79, 5-amino-N-((1R,4R)-7-bromo-1-methylisochroman-4-yl)-N-methyl-6,8-dihydro-1H-furo[3,4-d]pyrrolo[3,2-b]pyridine-2-carboxamide], the results for the IC50 with HCT116-MTAP-KO and in the assay on HCT116-mock-RNA-KO were 525 nM and 3280 nM, respectively.
Regarding `C[C@@H]1OC[C@@H](N(C)C(=O)c2cc3nc(N)c4c(c3[nH]2)COC4)c2ccc(Br)cc21` [Example 80, 5-amino-N-((1S,4S)-7-bromo-1-methylisochroman-4-yl)-N-methyl-6,8-dihydro-1H-furo[3,4-d]pyrrolo[3,2-b]pyridine-2-carboxamide], the 50% inhibitory concentration (IC50) in the assay with HCT116-MTAP-KO is 351 nM; in the assay on HCT116-mock-RNA-KO it was > 10000 nM.
For `C[C@H]1OC[C@@H](N(C)C(=O)c2cc3nc(N)c4c(c3[nH]2)COC4)c2ccc(Br)cc21` [Example 81, 5-amino-N-((1R,4S)-7-bromo-1-methylisochroman-4-yl)-N-methyl-6,8-dihydro-1H-furo[3,4-d]pyrrolo[3,2-b]pyridine-2-carboxamide], the results for the IC50 in the assay with HCT116-MTAP-KO and with HCT116-mock-RNA-KO were 9.7 nM and 1020 nM, respectively.
The like results for `CN(C(=O)c1cc2nc(N)c3c(c2[nH]1)COC3)[C@@H]1COCc2cc(C(F)(F)F)cc(F)c21` [Example 82, (S)-5-amino-N-(5-fluoro-7-(trifluoromethyl)isochroman-4-yl)-N-methyl-6,8-dihydro-1H-furo[3,4-d]pyrrolo[3,2-b]pyridine-2-carboxamide] were, in that order, 13 nM and 1840 nM.
As to `C[C@H]1OC[C@@H](N(C)C(=O)c2cc3nc(N)c4c(c3[nH]2)CO[C@@H]4C)c2ccc(C(F)(F)F)cc21` [Example 83, (R)-5-amino-N,6-dimethyl-N-((1R,4S)-1-methyl-7-(trifluoromethyl)isochroman-4-yl)-6,8-dihydro-1H-furo[3,4-d]pyrrolo[3,2-b]pyridine-2-carboxamide], the IC50 stood at 7.2 nM with HCT116-MTAP-KO and 556 nM in the assay with HCT116-mock-RNA-KO.
